These results are taken from article PMC3658936, “Comparison of cyclic RGD peptides for αvβ3 integrin detection in a rat model of myocardial infarction” (EJNMMI Research, 2013).

Read-outs that look alike come from different tables or passages of the source.

What is called IC50 is the concentration needed to halve the response being measured.

In series [1] the test system is αvβ3 integrin. Set-up: method as in PMID 22147338, PMID 22444238. To be noted: competitive displacement assay on M21 human melanoma cells; cited from earlier work.
For series [2], the system named is αvβ3 integrin. As to the kind of experiment: Ex vivo autoradiography of RGD tracer uptake in the myocardium (infarct vs. remote). Conditions: rat MI 1 week after LAD ligation, 90 min p.i., mean ± SD. Here is the method: Permanent ligation of the left anterior descending coronary artery was performed, as previously described in 34 healthy male Lewis rats (Charles Rivers Laboratories, Sulzfeld, Germany) aged 8 to 10 weeks to induce MI. Briefly, the rats were anaesthetised with intramuscular administration of midazolam 5 mg/kg (Dormicum®, Roche; Grenzach-Wyhlen, Germany), medetomidin 0.5 mg/kg (Dormitor®, Pfizer, Karlsruhe, Germany) and fentanyl 0.05 mg/kg (Ratiopharm, Ulm, Germany) and connected to a rodent ventilator. […]
The excised hearts were frozen and embedded in Tissue Tek® mounting media (Sakura Finetek Europe B.V., Alphen aan den Rijn, the Netherlands). […] After an overnight exposure, the imaging plates were scanned with an image plate scanner (CR 35 BIO, Dürr Medical, Raytest Isotopenmeßgeräte GmbH, Germany; internal resolution of 25 μm), and the images were analysed for background-corrected count densities (PSL/mm^2) with an image analysis programme (AIDA Image Analyser, Raytest Isotopenmeßgeräte, Germany). […]
(§1) After careful co-registration of the autoradiographs and HE histological images, regional tracer uptake was analysed in the following two regions: (1) the infarcted myocardium containing the border zone as assessed after HE staining and (2) the remote, non-affected myocardium. […]

For series [3], the system named is αvβ3 integrin. As to the kind of experiment: in vivo. Conditions: for tissue uptake per volume at 1.375 h: male, Lewis, in vivo, iv, total radioactivity. Here is the method:
Permanent ligation of the left anterior descending coronary artery was performed, as previously described in 34 healthy male Lewis rats (Charles Rivers Laboratories, Sulzfeld, Germany) aged 8 to 10 weeks to induce MI. Briefly, the rats were anaesthetised with intramuscular administration of midazolam 5 mg/kg (Dormicum®, Roche; Grenzach-Wyhlen, Germany), medetomidin 0.5 mg/kg (Dormitor®, Pfizer, Karlsruhe, Germany) and fentanyl 0.05 mg/kg (Ratiopharm, Ulm, Germany) and connected to a rodent ventilator. The heart was exposed through a left lateral thoracotomy of the fourth intercostal space, and the left anterior descending (LAD) artery was ligated near to its origin (2 to 3 mm from the tip of the left atrium). Two rats underwent sham operation, which consisted of the same procedures except that the LAD artery suture was not tightened. The rats were treated with 0.05 mg/kg buprenorphin (Temgesic®, Essex, Germany) and 4 mg/kg carprofen (Rimadyl, Pfizer, Germany) for 72 h post surgery. The study protocols were approved by the regional governmental commission for animal protection (Regierung von Oberbayern, Munich, Germany).
A subset of animals (n = 7) was imaged using a small-animal PET/CT scanner (Inveon, Siemens Medical Solutions, Knoxville, TN, USA). The rats were anaesthetised using 1.5% isoflurane. Breathing was monitored and temperature was maintained using a heating pad throughout the imaging procedures. The rats were injected with 37 MBq of [^13N]NH3 via tail a vein catheter, and perfusion images were acquired for 15 min starting at the time of injection. A CT scan was performed for anatomical localisation. The animals were left anaesthetised in the scanner, and 60 min later, the animals were injected with either ^68Ga-NODAGA-RGD (72 MBq, n = 4) or ^68Ga-TRAP(RGD)3 (63 MBq, n = 3) via the tail vein. […]
The ^68Ga- and ^13N-PET images were fused, and the uptake was visualised using the Inveon Research Workplace (Siemens, Knoxville, TN, USA). […] The mean radioactivity concentration within the ROI was expressed as the percentage of injected dose per cubic centimetre (% ID/cc).

Series [4] can be described thus: Ex vivo biodistribution in tissues by gamma counting. More on the design: species or system rat. To be noted: for tissue uptake at 1.5 h: Lewis, rat, in vivo, total radioactivity. Here is the method: Rats were anesthetised using 1.5% isoflurane and were injected via tail vein catheter with ^18F-galacto-RGD (37 MBq, n = 9), ^68Ga-NODAGA-RGD (69 MBq, n = 10) or of ^68Ga-TRAP(RGD)3 (54 MBq, n = 12). Rats were kept under anaesthesia in a warmed bed until euthanized after 90 min using intravenous injection of 150 mg/kg of pentobarbiturate (Narcoren®, Merial, Rohrdorf, Germany). The heart was excised and cut transaxially at the location of the infarct. The apical part, containing both infarct and non-affected remote myocardium, was processed for sectioning for autoradiography as described below.
Tissue samples (remote myocardium, apical part of myocardium, femoral muscle, operation wound and the connective tissue contralateral to the wound, spleen, liver, kidney, urine and blood) were dissected, and the weights of the tissue, urine, blood and serum samples were measured and their activity was detected using a gamma counter (1480 Wizard, PerkinElmer Wallac, Turku, Finland).

The subject of series [5] is αvβ3 integrin. The series can be described thus: Specificity of RGD binding: pre-injection of a blocking dose of cilengitide, autoradiography. The class given is in vivo, rat. To be noted: cilengitide 18 mg/kg 10 min prior to tracer injection. How it is done: The specificity of the RGD binding was studied on three rats with pre-injection of a blocking dose of cilengitide (18 mg/kg = 30.6 μmol/kg) 10 min prior to the tracer injection.
The excised hearts were frozen and embedded in Tissue Tek® mounting media (Sakura Finetek Europe B.V., Alphen aan den Rijn, the Netherlands). Serial LV short-axis cryosections of 20-μm thickness were obtained. Similar sections of muscle and spleen samples of the same rat were processed and used as negative and positive controls. After quick air drying, the sections were exposed to an imaging plate (Kodak Storage Phosphor screen GP, Eastman Kodak Company, Rochester, NY, USA). After an overnight exposure, the imaging plates were scanned with an image plate scanner (CR 35 BIO, Dürr Medical, Raytest Isotopenmeßgeräte GmbH, Germany; internal resolution of 25 μm), and the images were analysed for background-corrected count densities (PSL/mm^2) with an image analysis programme (AIDA Image Analyser, Raytest Isotopenmeßgeräte, Germany). […]
as §1

Turning to `N=C(N)NCCC[C@@H]1NC(=O)[C@H](CCCCNC(=O)CCP(=O)(O)CN2CCN(CP(=O)(O)CCC(=O)NCCCC[C@@H]3NC(=O)[C@@H](Cc4ccccc4)NC(=O)[C@H](CC(=O)O)NC(=O)CNC(=O)[C@H](CCCNC(=N)N)NC3=O)CCN(CP(=O)(O)CCC(=O)NCCCC[C@@H]3NC(=O)[C@@H](Cc4ccccc4)NC(=O)[C@H](CC(=O)O)NC(=O)CNC(=O)[C@H](CCCNC(=N)N)NC3=O)CC2)NC(=O)[C@@H](Cc2ccccc2)NC(=O)[C@H](CC(=O)O)NC(=O)CNC1=O` [^68Ga-TRAP(RGD)3, ^68Ga-TRAP(cyclo(RGDfK))3, metal not drawn], the 50% inhibitory concentration (IC50) in the series on αvβ3 integrin [1] was 44 nM. Also, in the series on αvβ3 integrin [2], the “infarct vs. remote PSL/mm2 uptake ratio” value is on record as 4.1 ± 0.7. Moreover, in the series on αvβ3 integrin [3] (PET image-derived, rat MI 1 week), the “infarct-to-remote ratio (PET)” value amounted to 1.9. In addition, the tissue uptake per volume at 1.375 h with αvβ3 integrin [3] (PET, 82.5 min after injection, rat MI 1 week, read-out: image-derived average uptake in the myocardium, infarct area) was determined as 0.25 ± 0.02 %ID/mL. In addition, the tissue uptake at 1.5 h was 0.353 ± 0.1 %ID/g in series [4] (90 min p.i., mean ± SD, contains both infarct and remote areas, read-out: Biodistribution: Apical myocardium); 0.19 ± 0.08 %ID/g in series [4] (90 min p.i., mean ± SD, contralateral to the wound, read-out: Biodistribution: Connective tissue); 0.101 ± 0.07 %ID/g in series [4] (90 min p.i., mean ± SD, read-out: Biodistribution: Blood); 1.45 ± 0.51 %ID/g in series [4] (90 min p.i., mean ± SD, read-out: Biodistribution: Kidney); 0.524 ± 0.61 %ID/g in series [4] (90 min p.i., mean ± SD, read-out: Biodistribution: Liver); 0.066 ± 0.03 %ID/g in series [4] (90 min p.i., mean ± SD, read-out: Biodistribution: Muscle). Also, the tissue uptake at 1.5 h in series [4] (90 min p.i., mean ± SD, read-out: Biodistribution: Remote myocardium) worked out at 0.154 ± 0.09 %ID/g; in series [4] (90 min p.i., mean ± SD, read-out: Biodistribution: Serum), 0.166 ± 0.12 %ID/g; in series [4] (90 min p.i., mean ± SD, read-out: Biodistribution: Spleen), 0.415 ± 0.3 %ID/g; in series [4] (90 min p.i., mean ± SD, read-out: Biodistribution: Urine), 35.1 ± 22.4 %ID/g; in series [4] (90 min p.i., mean ± SD, read-out: Biodistribution: Wound), 0.256 ± 0.12 %ID/g. In series [4] (gamma counting, apical part vs. remote myocardium tissue sample), the apical-to-remote ratio worked out at 2.1.

Regarding `N=C(N)NCCC[C@@H]1NC(=O)[C@H](CCCCNC(=O)CCC(C(=O)O)N2CCN(CC(=O)O)CCN(CC(=O)O)CC2)NC(=O)[C@@H](Cc2ccc(O)cc2)NC(=O)[C@H](CC(=O)O)NC(=O)CNC1=O` (stereo partly shown) [^68Ga-NODAGA-RGD, ^68Ga-NODAGA-cyclo(RGDyK), metal not drawn], the tissue uptake per volume at 1.375 h in the series on αvβ3 integrin [3] (rat) is 0.17 ± 0.03 %ID/mL. For the same molecule, the tissue uptake at 1.5 h worked out at 0.156 ± 0.06 %ID/g in series [4] (Biodistribution: Apical myocardium); 0.058 ± 0.02 %ID/g in series [4] (Biodistribution: Blood); 0.11 ± 0.05 %ID/g in series [4] (Biodistribution: Connective tissue); 1.1 ± 0.7 %ID/g in series [4] (Biodistribution: Kidney); 0.23 ± 0.17 %ID/g in series [4] (Biodistribution: Liver); 0.035 ± 0.01 %ID/g in series [4] (Biodistribution: Muscle). For the same molecule, the tissue uptake at 1.5 h worked out at 0.071 ± 0.03 %ID/g in series [4] (Biodistribution: Remote myocardium); 0.094 ± 0.05 %ID/g in series [4] (Biodistribution: Serum); 0.246 ± 0.16 %ID/g in series [4] (Biodistribution: Spleen); 20.2 ± 6.4 %ID/g in series [4] (Biodistribution: Urine); 0.27 ± 0.24 %ID/g in series [4] (Biodistribution: Wound).

As to “^18F-galacto-cyclo(RGDfK) [^18F-galacto-RGD, reference compound]”, the half-maximal inhibitory concentration (IC50) with αvβ3 integrin [1] is 319 nM. In the series on αvβ3 integrin [2], the “infarct vs. remote PSL/mm2 uptake ratio” value amounted to 4.7 ± 0.8.

For cilengitide, the “effect of pre-injection of high-dose cilengitide on tracer uptake” value in the series on αvβ3 integrin [5] is “reduced the uptake in the myocardium and also in the spleen”.
